Assay results from paper PMC10706425, “Enhancing the Antimicrobial Properties of Peptides through Cell-Penetrating Peptide Conjugation: A Comprehensive Assessment” (International Journal of Molecular Sciences, 2023).

What was measured:
E. coli (K12 strain) = test: Antibacterial activity in liquid medium; assay type: cell-based, Escherichia coli; conditions: K12 strain; Mueller–Hinton broth, 37 °C, 2% DMSO
Excerpt: (§1) Two S. aureus strains were used: a susceptible strain 209P and a clinical isolate strain 129B (resistant to antibiotics: benzylpenicillin, clindamycin, erythromycin, oxacillin, sulfamethoxazole, and vancomycin). Two MRSA strains were included: a susceptible strain ATCC 43300 (resistant to antibiotics: methicillin, oxacillin (beta-lactam antibiotics), ampicillin (https://www.atcc.org/products/43300 (accessed on 11 November 2023)) and a clinical isolate strain SA 180 (resistant to antibiotics: benzylpenicillin and oxacillin (beta-lactam antibiotics), ciprofloxacin, clindamycin, erythromycin, levomycetin, sulfamethoxazole, and vancomycin). One B. cereus was used: a susceptible strain, IP 5832. Two P. aeruginosa strains were included: a susceptible strain, ATCC 28753, and a resistant strain, 2943. Two E. coli strains were used: a susceptible strain, K12, and a susceptible strain, MG1655.
(§2) Determination of the growth for the bacteria S. aureus strain 209P, MRSA strain ATCC 43300, B. cereus strain IP 5832, P. aeruginosa strain ATCC 28753, and E. coli strain K12 was performed using Mueller–Hinton Broth (MHB) (Sigma-Aldrich, St. Louis, MO, USA). Bacteria of S. aureus (strain 129B) and MRSA (strain SA 180-F) were grown on the brain-heart infusion (BHI) medium, and bacteria of P. aeruginosa (strain 2943) and E. coli (strain MG1655) were grown on the LB medium. The preparation and co-incubation of peptides with bacteria were carried out as described previously. The samples were grown at 37 °C.

MRSA (ATCC 43300 strain) = test: Antibacterial activity in liquid medium; assay type: cell-based, Methicillin-resistant Staphylococcus aureus; conditions: ATCC 43300 strain; Mueller–Hinton broth, 37 °C, 2% DMSO
Excerpt: as §1, §2

bacteria = test: Antibacterial activity of amyloidogenic fragments alone (bacteria not given); assay type: cell-based; conditions: Table 2 and Table S1
S. aureus (209P strain) = test: Antibacterial activity in liquid medium; assay type: cell-based, Staphylococcus aureus; conditions: 209P strain; Mueller–Hinton broth, 37 °C, 2% DMSO
Excerpt: as §1, §2

ITDFGIFIGL [I10L^P]
913 µM: Peptide Activity in Liquid Medium after 15 h of Incubation (Gentamicin as Positive Control) (E. coli (K12 strain)) | Peptide Activity in Liquid Medium after 15 h of Incubation (Gentamicin as Positive Control) (MRSA (ATCC 43300 strain)) | Concentration with antibacterial activity, amyloidogenic fragment alone (bacteria) | Peptide Activity in Liquid Medium after 15 h of Incubation (Gentamicin as Positive Control) (S. aureus (209P strain))
